Measured values published in US8088819B2, “Derivatives of substituted 3-phenyl-1-(phenylthienyl)propan-1-ones and of 3-phenyl-1-(phenylfuranyl) propan-1-ones, preparation and use” (priority 2006, dated 2012).

How the values were obtained:
hPPARdelta = target: T1, hPPARdelta (Homo sapiens, UniProt Q03181); assay: PPAR activation: Gal4-hPPARδ chimera luciferase transactivation in COS-7 cells, Method 1; type: cell-based; settings: COS-7, 24 h; for Emax: maximum percentage response relative to the reference GW501516, read-out: hPPARdelta % max
T1 construct: expressed in transfected cells; host or cells: COS-7 (monkey kidney fibroblasts)
T1 sequence (Q03181 211-439 limits assumed): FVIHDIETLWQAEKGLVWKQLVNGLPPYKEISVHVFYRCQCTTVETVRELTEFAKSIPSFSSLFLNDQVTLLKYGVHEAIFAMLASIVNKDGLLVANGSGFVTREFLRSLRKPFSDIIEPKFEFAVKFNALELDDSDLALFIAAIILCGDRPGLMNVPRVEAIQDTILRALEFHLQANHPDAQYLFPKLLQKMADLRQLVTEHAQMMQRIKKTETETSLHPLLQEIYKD
Procedure, shortened: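 COS-7 cells transiently transfected with Gal4 DBD–human PPAR LBD (DEF domain) chimeras plus Gal4(RE)_TkpGL3 luciferase reporter (1/10 ratio). Compounds applied 24 h at 37 °C in serum-free medium at doses between 10^−5 and […]; luciferase read after lysis, EC50 derived.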

murine myocytes (C2C12) = assay: β-oxidation of fatty acids in murine myocytes (tritiated palmitate); type: cell-based; settings: 24 h pretreatment
Excerpt: The more the induction of the β-oxidation of fatty acids is increased, the greater the stimulating action of the compound according to the invention on metabolism in the muscle cells.
The objective is to measure the amount of tritiated water formed during the mitochondrial oxidation of ^3H-labeled fatty acids.
The C2C12 murine cell line (obtained from ECACC) is cultivated in DMEM medium (Gibco; 41965-039) with addition of 1% L-glutamine (Gibco; 25030), 1% penicillin/streptomycin (VWR; BWSTL0022/100) and 10% decomplemented fetal calf serum (FCS. Gibco; 10270-106).
The cells are seeded on 48-well plates at a density of 25·10^3 cells/well. At confluence, the medium is replaced with a differentiating medium (basal medium with addition of 2% of horse serum (Gibco; 26050-088)), then incubated at 37° C. and 5% CO2 for 4 days in order to differentiate them to myocytes.
After 4 days of differentiation, the cells are treated with the compounds according to the invention added to the culture medium for differentiation. Compound 2 was tested by dose effect from 0.01 to 1 μM, and the others were tested at a dose of 1 μM. The compounds according to the invention are dissolved in dimethylsulfoxide (DMSO, Sigma; D5879). The cells are treated for 24 h at 37° C., 5% CO2. The effect of the compounds according to the invention is compared with the effect of DMSO alone. […]
Secondly, 50 μL of precipitated supernatant is evaporated for 2 days, then the residual tritium is measured in order to evaluate the amount of tritiated palmitate not converted to water.
A standard range is prepared by successive dilutions of the tritiated palmitate/BSA complex in order to determine the amount of palmitate converted to water. For each time of the kinetics, 1 h, 2 h and 3 h, the amount in nanomoles of oxidized palmitate is calculated by linear regression. The areas under the curve are determined for each set of conditions and the results are normalized with DMSO. […]

EC50 (hPPARdelta)	Emax (hPPARdelta)	melting point	SMILES	β-oxidation of fatty acids in murine myocytes (murine myocytes (C2C12); in dose effect starting from 0.01 μM)	β-oxidation of fatty acids in murine myocytes (murine myocytes (C2C12); at 1 μm)
7 nM	91%	153 to 154 °C	CC(C)(Oc1ccc(CCC(=O)c2ccc(-c3ccc(C(F)(F)F)cc3)s2)c(Cl)c1Cl)C(=O)O [Compound 2, 2-(2,3-dichloro-4-(3-oxo-3-(5-(4-(trifluoromethyl)phenyl)thien-2-yl)propyl)phenoxy)-2-methylpropanoic acid]	significant increase	–
34 nM	107%	54 to 56 °C	CC(C)(Oc1ccc(CCC(O)c2ccc(-c3ccc(C(F)(F)F)cc3)s2)c(Cl)c1Cl)C(=O)O (stereo not shown) [Compound 4, 2-(2,3-dichloro-4-(3-hydroxy-3-(5-(4-(trifluoromethyl)phenyl)thien-2-yl)propyl)phenoxy)-2-methylpropanoic acid]	–	significant increase
–	–	46 to 48 °C	CC(C)(Oc1ccc(CCC(OCc2ccccc2)c2ccc(-c3ccc(C(F)(F)F)cc3)s2)c(Cl)c1Cl)C(=O)O (stereo not shown) [Compound 7, 2-(4-(3-(benzyloxy)-3-(5-(4-(trifluoromethyl)phenyl)thien-2-yl)propyl)-2,3-dichlorophenoxy)-2-methylpropanoic acid]	–	–
3 nM	105%	99 to 101 °C	CC(C)(Oc1ccc(CCC(=O)c2cc(-c3ccc(C(F)(F)F)cc3)cs2)c(Cl)c1Cl)C(=O)O [Compound 11, 2-(2,3-dichloro-4-(3-oxo-3-(4-(4-(trifluoromethyl)phenyl)thien-2-yl)propyl)phenoxy)-2-methylpropanoic acid]	–	significant increase
